Measurements taken from DBAASP.
Converted amounts (≈) assume the structure as drawn.

What was measured:
Assay in all cases: ≥ marks a high value that may be exact or a test limit, other limits are often not marked, values filed in µg/mL are converted to µM
[1] = test system: Escherichia coli ATCC 25922
[2] = test system: Candida albicans ATCC 2002
[3] = test system: Pseudomonas aeruginosa CMCCB 10104
[4] = test system: Staphylococcus aureus ATCC 25923
[5] = test system: Bacillus subtilis
[6] = test system: Staphylococcus epidermidis ATCC 12228
[7] = test system: Candida parapsilosis ATCC 22019

CC[C@H](C)[C@H](NC(=O)CNC(=O)[C@H](CCCCN)NC(=O)CNC(=O)[C@@H](NC(=O)[C@H](Cc1ccccc1)NC(=O)[C@H](CCCCN)NC(=O)[C@H](CO)NC(=O)[C@H](Cc1ccccc1)NC(=O)[C@H](CC(C)C)NC(=O)CN)C(C)C)C(=O)N[C@@H](CCCCN)C(=O)N[C@@H](CC(N)=O)C(=O)N[C@@H](Cc1ccccc1)C(=O)N[C@@H](CC(C)C)C(=O)N[C@H](C(=O)N[C@@H](CCCCN)C(=O)NCC(=O)N[C@H](C(=O)N[C@@H](CCCCN)C(=O)N[C@@H](Cc1cnc[nH]1)C(=O)N[C@H](C(=O)NCC(=O)N[C@@H](CCCCN)C(=O)N[C@@H](CCC(=O)O)C(=O)N[C@H](C(=O)NCC(=O)N[C@@H](CCSC)C(=O)N[C@@H](CC(=O)O)C(=O)N[C@H](C(=O)N[C@H](C(=O)N[C@@H](CCCN=C(N)N)C(=O)N[C@H](C(=O)NCC(=O)N[C@H](C(=O)N[C@@H](CC(=O)O)C(=O)N[C@H](C(=O)N[C@@H](C)C(=O)NCC(=O)N[C@H]1CSSC[C@@H](C(=O)O)NC(=O)[C@H](C(C)C)NC(=O)CNC(=O)[C@H](CCCCN)NC(=O)[C@H]([C@@H](C)CC)NC(=O)[C@H](CCCCN)NC1=O)C(C)C)[C@@H](C)CC)C(C)C)[C@@H](C)CC)C(C)C)C(C)C)[C@@H](C)CC)C(C)C)[C@@H](C)CC [GLFSKFVGKGIKNFLIKGVKHIGKEVGMDVIRVGIDVAGCKIKGVC]
MIC [1]: 0.247 µM (≈ 1.2 µg/mL) | MIC [2]: 0.494 µM (≈ 2.4 µg/mL) | MIC [3]: 0.247 µM (≈ 1.2 µg/mL) | MIC [4]: 0.247 µM (≈ 1.2 µg/mL)

CC[C@H](C)[C@@H]1NC(=O)[C@H](CCCCN)NC(=O)[C@@H](NC(=O)[C@H](CCCCN)NC(=O)[C@H](CC(C)C)NC(=O)[C@H](CC(N)=O)NC(=O)[C@H](CC(=O)O)NC(=O)[C@H](CC(C)C)NC(=O)[C@H](CC(C)C)NC(=O)[C@@H](NC(=O)[C@@H](NC(=O)[C@H](C)NC(=O)[C@H](CCSC)NC(=O)[C@H](CC(N)=O)NC(=O)[C@H](CCCCN)NC(=O)[C@H](C)NC(=O)[C@@H](NC(=O)[C@H](CC(N)=O)NC(=O)[C@H](CCCCN)NC(=O)[C@H](C)NC(=O)[C@@H](NC(=O)[C@H](CC(=O)O)NC(=O)[C@H](CCSC)NC(=O)[C@H](Cc2ccccc2)NC(=O)CN)[C@@H](C)O)C(C)C)C(C)C)[C@@H](C)O)CSSC[C@@H](C(=O)O)NC(=O)[C@H](C)NC(=O)[C@H](CCCCN)NC(=O)[C@H]([C@@H](C)O)NC1=O [GFMDTAKNVAKNMAVTLLDNLKCKITKAC]
MIC [1]: 2.39 µM (≈ 7.5 µg/mL) | MIC [2]: 1.21 µM (≈ 3.8 µg/mL) | MIC [3]: 2.39 µM (≈ 7.5 µg/mL) | MIC [4]: 1.21 µM (≈ 3.8 µg/mL)

CC[C@H](C)[C@H](NC(=O)[C@H](C)NC(=O)[C@H](CC(C)C)NC(=O)[C@H](CCC(=O)O)NC(=O)[C@H](CCCCN)NC(=O)[C@H](Cc1ccccc1)NC(=O)[C@@H](NC(=O)[C@H](CO)NC(=O)[C@H](CC(C)C)NC(=O)[C@H](Cc1ccccc1)NC(=O)[C@@H](N)CO)[C@@H](C)O)C(=O)N[C@@H](CC(N)=O)C(=O)N[C@@H](C)C(=O)N[C@@H](C)C(=O)N[C@@H](CCCCN)C(=O)N[C@@H](CC(N)=O)C(=O)N[C@@H](C)C(=O)NCC(=O)N[C@@H](CCC(N)=O)C(=O)N[C@@H](CO)C(=O)N[C@@H](CC(C)C)C(=O)N[C@@H](CC(C)C)C(=O)N[C@@H](Cc1cnc[nH]1)C(=O)N[C@H](C(=O)N[C@@H](CC(C)C)C(=O)N[C@@H](CO)C(=O)N[C@H]1CSSC[C@@H](C(=O)O)NC(=O)[C@H]([C@@H](C)O)NC(=O)[C@H](CCCCN)NC(=O)[C@H](CC(=O)O)NC(=O)[C@H](CC(C)C)NC(=O)[C@H](CCCCN)NC1=O)[C@@H](C)O [SFLSTFKELAINAAKNAGQSLLHTLSCKLDKTC]
MIC [1]: 4.45 µM (≈ 15.8 µg/mL) | MIC [2]: 4.45 µM (≈ 15.8 µg/mL) | MIC [3]: 2.22 µM (≈ 7.9 µg/mL) | MIC [4]: 2.22 µM (≈ 7.9 µg/mL)

CC[C@H](C)[C@@H]1NC(=O)[C@H](CCCCN)NC(=O)[C@@H](NC(=O)[C@H](CCCCN)NC(=O)[C@H](CC(C)C)NC(=O)[C@H](CC(N)=O)NC(=O)[C@H](CC(=O)O)NC(=O)[C@H](CC(C)C)NC(=O)[C@H](CC(C)C)NC(=O)[C@H](CC(N)=O)NC(=O)CNC(=O)[C@H](C)NC(=O)[C@H](CCSC)NC(=O)[C@H](CC(N)=O)NC(=O)[C@H](CCCCN)NC(=O)[C@H](C)NC(=O)[C@@H](NC(=O)[C@H](CC(N)=O)NC(=O)[C@H](CCCCN)NC(=O)[C@H](C)NC(=O)[C@@H](NC(=O)[C@H](CC(=O)O)NC(=O)[C@H](CCSC)NC(=O)[C@H](Cc2ccccc2)NC(=O)CN)[C@@H](C)O)C(C)C)CSSC[C@@H](C(=O)O)NC(=O)[C@H](C)NC(=O)[C@H](CCCCN)NC(=O)[C@H]([C@@H](C)O)NC1=O [GFMDTAKNVAKNMAGNLLDNLKCKITKAC]
MIC [1]: 1.61 µM (≈ 5 µg/mL) | MIC [2]: 0.803 µM (≈ 2.5 µg/mL) | MIC [3]: 3.21 µM (≈ 9.99 µg/mL) | MIC [4]: 0.803 µM (≈ 2.5 µg/mL)

CC[C@H](C)[C@H](NC(=O)[C@H](CC(C)C)NC(=O)[C@H](CCC(N)=O)NC(=O)[C@@H](NC(=O)[C@H](C)NC(=O)CNC(=O)[C@H](CCCCN)NC(=O)[C@@H](NC(=O)[C@H](CC(C)C)NC(=O)[C@@H](NC(=O)[C@H](Cc1ccccc1)NC(=O)[C@@H](NC(=O)CN)C(C)C)[C@@H](C)O)[C@@H](C)CC)[C@@H](C)O)C(=O)NCC(=O)N[C@@H](CCCCN)C(=O)N[C@H](C(=O)N[C@@H](CC(C)C)C(=O)NCC(=O)N[C@@H](CCCCN)C(=O)N[C@@H](CCC(=O)O)C(=O)N[C@H](C(=O)NCC(=O)N[C@@H](CCCCN)C(=O)N[C@H](C(=O)NCC(=O)N[C@@H](CC(C)C)C(=O)N[C@@H](CCC(=O)O)C(=O)N[C@@H](CC(C)C)C(=O)N[C@@H](CCSC)C(=O)N[C@@H](C)C(=O)N[C@H]1CSSC[C@@H](C(=O)O)NC(=O)[C@H](CCC(N)=O)NC(=O)[C@H](CCCCN)NC(=O)[C@H]([C@@H](C)O)NC(=O)[C@H]([C@@H](C)CC)NC(=O)[C@H](CCCCN)NC1=O)[C@@H](C)O)C(C)C)[C@@H](C)O [GVFTLIKGATQLIGKTLGKEVGKTGLELMACKITKQC]
MIC [1]: 2.09 µM (≈ 8.1 µg/mL) | MIC [2]: 2.09 µM (≈ 8.1 µg/mL) | MIC [3]: 4.18 µM (≈ 16.2 µg/mL) | MIC [4]: 1.06 µM (≈ 4.1 µg/mL)

CC[C@H](C)[C@H](NC(=O)[C@H](C)NC(=O)[C@H](CCCN=C(N)N)NC(=O)[C@H](Cc1ccc(O)cc1)NC(=O)[C@H](CC(C)C)NC(=O)[C@H](CC(N)=O)NC(=O)[C@H](Cc1ccc(O)cc1)NC(=O)CNC(=O)[C@H](C)NC(=O)[C@@H](NC(=O)[C@@H](NC(=O)[C@@H](NC(=O)[C@H](CCCN=C(N)N)NC(=O)[C@@H](NC(=O)[C@@H](NC(=O)[C@@H](NC(=O)[C@@H]1CCCN1C(=O)[C@H](Cc1c[nH]c2ccccc12)NC(=O)[C@H](Cc1ccccc1)NC(=O)[C@@H](N)CCCN=C(N)N)C(C)C)C(C)C)[C@@H](C)CC)[C@@H](C)O)C(C)C)C(C)C)C(=O)N[C@@H](CCCCN)C(=O)N[C@@H](CCCCN)C(=O)N[C@@H](CCCCN)C(=O)O [RFWPVVIRTVVAGYNLYRAIKKK]
MIC [1]: 7.11 µM (≈ 19.8 µg/mL) | MIC [5]: 2.53 µM (≈ 7.03 µg/mL) | MIC [2]: 0.211 µM (≈ 0.586 µg/mL) | MIC [4]: 0.422 µM (≈ 1.17 µg/mL)

CC(C)C[C@H](NC(=O)[C@H](CCC(=O)O)NC(=O)[C@@H]1CCCN1C(=O)[C@H](CCC(=O)O)NC(=O)[C@@H](NC(=O)[C@H](C)NC(=O)[C@H](C)NC(=O)[C@@H](N)CC(=O)O)C(C)C)C(=O)N[C@@H](Cc1ccc(O)cc1)C(=O)N[C@@H](Cc1cnc[nH]1)C(=O)N[C@@H](Cc1c[nH]c2ccccc12)C(=O)NCC(=O)N[C@@H](CCCCN)C(=O)N[C@H](C(=O)N[C@@H](Cc1c[nH]c2ccccc12)C(=O)N[C@@H](CC(C)C)C(=O)N1CCC[C@H]1C(=O)N[C@@H](CC(N)=O)C(=O)O)C(C)C [DAAVEPELYHWGKVWLPN]
MIC [1]: > 94.1 µM | MIC [2]: ≥ 94.1 µM | MIC [3]: ≥ 94.1 µM | MIC [4]: > 94.1 µM

CC[C@H](C)[C@H](NC(=O)[C@H](CC(C)C)NC(=O)[C@H](CC(C)C)NC(=O)[C@H](CC(=O)O)NC(=O)[C@H](CCCCN)NC(=O)[C@@H](NC(=O)[C@@H](NC(=O)CNC(=O)[C@H](CCSC)NC(=O)[C@@H](NC(=O)[C@@H](N)CO)C(C)C)[C@@H](C)O)C(C)C)C(=O)NCC(=O)N[C@@H](C)C(=O)NCC(=O)N[C@@H](CCCCN)C(=O)N[C@@H](CO)C(=O)N[C@@H](C)C(=O)N[C@@H](C)C(=O)N[C@@H](CCC(N)=O)C(=O)N[C@@H](CO)C(=O)N[C@H](C(=O)N[C@@H](CC(C)C)C(=O)N[C@@H](CCCCN)C(=O)N[C@@H](C)C(=O)N[C@@H](CC(C)C)C(=O)N[C@@H](CO)C(=O)N[C@H]1CSSC[C@@H](C(=O)O)NC(=O)[C@H](CC(=O)O)NC(=O)[C@H](CCCCN)NC(=O)[C@H](CO)NC(=O)[C@H](CC(C)C)NC(=O)[C@H](CCCCN)NC1=O)C(C)C [SVMGTVKDLLIGAGKSAAQSVLKALSCKLSKDC]
MIC [1]: 3.16 µM (≈ 10.5 µg/mL) | MIC [2]: 3.16 µM (≈ 10.5 µg/mL) | MIC [3]: 6.32 µM (≈ 21 µg/mL) | MIC [4]: 3.16 µM (≈ 10.5 µg/mL)

CC[C@H](C)[C@H](NC(=O)CN)C(=O)N[C@@H](Cc1ccccc1)C(=O)NCC(=O)N[C@@H](CCCCN)C(=O)N[C@H](C(=O)N[C@@H](CC(C)C)C(=O)NCC(=O)N[C@H](C(=O)NCC(=O)N[C@@H](CCCCN)C(=O)N[C@@H](CCCCN)C(=O)N[C@H](C(=O)N[C@@H](CC(C)C)C(=O)N[C@H]1CSSC[C@@H](C(=O)O)NC(=O)[C@H](CCSC)NC(=O)CNC(=O)[C@H](CO)NC(=O)[C@H](CC(C)C)NC(=O)[C@H](CCC(=O)O)NC1=O)[C@@H](C)O)C(C)C)[C@@H](C)CC [GIFGKILGVGKKTLCELSGMC]
MIC [1]: 2.92 µM (≈ 6.29 µg/mL) | MIC [2]: 1.49 µM (≈ 3.2 µg/mL) | MIC [3]: 2.92 µM (≈ 6.29 µg/mL) | MIC [4]: 2.92 µM (≈ 6.29 µg/mL)

CC(C)C[C@H](NC(=O)CNC(=O)[C@@H]1CCCN1C(=O)[C@H](CC(C)C)NC(=O)[C@@H](N)Cc1ccccc1)C(=O)N[C@@H](CCC(=O)O)C(=O)N[C@@H](CS)C(=O)N[C@H](C(=O)N[C@@H](Cc1c[nH]c2ccccc12)C(=O)O)C(C)C [FLPGLECVW]
MIC [1]: > 188 µM | MIC [2]: ≥ 188 µM | MIC [3]: ≥ 188 µM | MIC [4]: > 188 µM

CC[C@H](C)[C@H](NC(=O)[C@H](C)NC(=O)CNC(=O)[C@H](CC(C)C)NC(=O)[C@@H](N)Cc1ccccc1)C(=O)N[C@@H](C)C(=O)N[C@@H](CCC(N)=O)C(=O)N[C@@H](C)C(=O)N[C@@H](CC(C)C)C(=O)N[C@H](C(=O)N[C@@H](CO)C(=O)N[C@@H](CC(C)C)C(=O)N[C@@H](CC(C)C)C(=O)NCC(=O)N[C@@H](CCCCN)C(=O)N[C@@H](CC(C)C)C(N)=O)[C@@H](C)O [FLGAIAQALTSLLGKL]
MIC [6]: 8 µM (≈ 12.9 µg/mL) | MIC [7]: ≥ 64 µM | MIC [1]: > 128 µM
